Data: PMC5924986, “Cellular and Biophysical Pipeline for the Screening of Peroxisome Proliferator-Activated Receptor Beta/Delta Agonists: Avoiding False Positives” (PPAR Research, 2018)
“And” between values parts separate entries of the source, which are not always exact repeats. Identical values can stand only once. “Also recorded” adds a separate entry of the source. Like-named read-outs stand apart in the source and are kept apart here.

Tests used:
[1] = system: PPARß/δ; settings: read-out: EC50 found in the literature, cited from earlier work
[2] = target: T1, hPPARß/δ LBD (Homo sapiens, UniProt Q03181); test: Qualitative thermal shift assay (TSA); assay type: binding; settings: commercial agonists at 30 μM, 10 μM PPARß/δ, vs apo-PPARß/δ
T1 construct: cDNA (amino acids 171–441) inserted into pET28a vector; His-tag; made in house; host or cells: Escherichia coli BL21(DE3)
T1 sequence (Q03181 171-441): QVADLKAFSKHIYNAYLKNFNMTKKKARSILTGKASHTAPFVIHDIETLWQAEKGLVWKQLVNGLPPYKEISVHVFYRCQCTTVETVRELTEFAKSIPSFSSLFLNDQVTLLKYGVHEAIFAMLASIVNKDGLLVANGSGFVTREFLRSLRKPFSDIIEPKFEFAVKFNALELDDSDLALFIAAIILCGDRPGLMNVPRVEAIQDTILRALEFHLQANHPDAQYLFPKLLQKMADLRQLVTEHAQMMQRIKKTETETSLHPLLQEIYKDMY

[3] = target: T2, PPARß/δ (Homo sapiens, UniProt Q03181); test: PPARß/δ transactivation assay (Gal4-DBD/PPARß/δ-LBD dual luciferase reporter-gene assay in 293T cells); assay type: cell-based; settings: dose-response curves 10^−11–10^−6 M
T2 construct: expressed in transfected cells; host or cells: 293T cells (ATCC CRL-3216), transient transfection
T2 sequence (Q03181 211-439 limits assumed): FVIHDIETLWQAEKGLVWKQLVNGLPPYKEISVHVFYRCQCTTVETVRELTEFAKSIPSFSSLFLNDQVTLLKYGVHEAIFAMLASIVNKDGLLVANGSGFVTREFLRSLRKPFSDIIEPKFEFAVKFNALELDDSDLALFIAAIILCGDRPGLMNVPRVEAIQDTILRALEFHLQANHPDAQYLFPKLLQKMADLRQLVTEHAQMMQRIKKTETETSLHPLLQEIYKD

[4] = target: T1, hPPARß/δ LBD; test: ANS fluorescence quenching; assay type: binding; settings: 2 μM hPPARß/δ LBD, 20 μM ANS; for ANS fluorescence quenching / ANS probe displacement (qualitative): compounds 0.3–50 μM, extracts 0.005–1 mg/mL
[5] = system: 293T cells; test: Cytotoxicity: MTT assay and Renilla reporter expression; assay type: cell-based; settings: 1 μM, 1% DMSO as vehicle, compared with 0.1% or 1% DMSO
Method: We performed vector normalization with the raw luminescence data to control for differences in transfection efficiency between samples. For vector normalization we calculate luciferase signal/Renilla signal. The assay performance was assessed by plate statistics (signal-to-background ratio, Z′-factor, coefficient of variation) and apparent cytotoxicity was a measure of Renilla luciferase parameters. For Z′-factor calculation, we consider, after vector normalization, the positive controls (GW0742) as signal, and negative controls (DMSO) as background. For cytotoxicity, wells with expression of Renilla reporter five standard deviations (5 × SD) below the mean value of the controls treatment were considered cytotoxic and consequently were disregarded. We considered as hit candidates compounds/extracts with luminescence firefly/Renilla ratio 7 times above the standard deviation of negative controls (DMSO) from the same plate. […]
Additionally, we related the 3-(4,5-dimethyl-2-thia-zoyl)-2,5-diphenyl-2H-tetrazolium bromide (MTT) results with Renilla reporter expression to assess when a test compound/extract might be toxic to the cells, only based on Renilla reporter expression. […] The absorbance was measured at 562 nm using an EnSpire® Multimode Plate Reader (Perkin Elmer). […] Data were analyzed by 2-way ANOVA followed by Sidak's multiple comparison test in GraphPad Prism software. […]

Cc1cc(SCc2sc(-c3ccc(C(F)(F)F)cc3)nc2C)ccc1OCC(=O)O [GW501516]
EC50 ([1]; ref [7]): 1.8 nM

CCCc1c(OCCCOc2ccc(OCC(=O)O)cc2)ccc(C(C)=O)c1O [L-165,041]
Tm variation [2]: 7.3 ± 0.7 °C and 7.3 °C
EC50 ([1]; ref [25]): 125 nM
EC50 [3]: 26.4 nM
ANS fluorescence quenching / ANS probe displacement (qualitative) [4]: showed quenching in the ANS fluorescence
Kd ([4]; read-out: apparent dissociation constant (Kdapp)): 1090 ± 80 nM

Cc1cc(SCc2sc(-c3ccc(C(F)(F)F)c(F)c3)nc2C)ccc1OCC(=O)O [GW0742]
cytotoxicity (MTT / Renilla reporter expression) [5]: no cytotoxicity

CC(C)(Oc1ccc(CCNC(=O)c2ccc(Cl)cc2)cc1)C(=O)O [Bezafibrate]
Tm variation [2]: 2.9 ± 0.1 °C and 2.9 °C
ANS fluorescence quenching / ANS probe displacement (qualitative) [4]: did not dislocate the ANS probe; also recorded: did not show a fluorescence quenching
